Values of other authors in patent publication US20240156825A1, “USE OF SELECTIVE VEGFR2 AND FGFR1 INHIBITORS” (Fountain Therapeutics Inc., priority 2022, published 2024).
pIC50: −log10 of the molar value.

System: any gene target
Conditions: Table 2; lowest reported IC50 to any gene target; read-out: Min IC50_μM; cited from earlier work
For `C[C@@H](Oc1ccc2[nH]nc(/C=C/c3cnn(CCO)c3)c2c1)c1c(Cl)cncc1Cl` [compound 46944259], the pIC50 is given as 8.59. For `COc1cc(CCc2cc(NC(=O)c3ccc(N4C[C@@H](C)N[C@@H](C)C4)cc3)n[nH]2)cc(OC)c1` [compound 51039095], the pIC50 is given as 9.40. In the case of `COc1ccc(OC)c(N(CCNC(C)C)c2ccc3ncc(-c4cnn(C)c4)nc3c2)c1` [compound 54591211], the pIC50 is listed as 6.82. In the case of `COc1cc(OC)cc(N(CC#Cc2cccc(N)n2)c2ccc3ncc(-c4cnn(C)c4)nc3c2)c1` [compound 67466417], the pIC50 is listed as 7.37. In the case of `COc1cc(OC)cc(N(CC#Cc2nccc(OC)n2)c2ccc3ncc(-c4cnn(C)c4)nc3c2)c1` [compound 67467703], the pIC50 is given as 8.13. In the case of `CNCCN(c1cc(OC)cc(OC)c1)c1ccc2ncc(-c3cnn(CC(=O)NC)c3)nc2c1` [compound 68208748], the pIC50 is given as 8.59. In the case of `COc1cc(OC)cc(N(CCNCC2CC2)c2ccc3ncc(-c4cnn(C)c4)nc3c2)c1` [compound 68208778], the pIC50 is given as 8.52. For `COc1cc(OC)cc(N(C[C@@H]2CCCN2)c2ccc3ncc(-c4cnn(C)c4)nc3c2)c1` [compound 68208803], the pIC50 is listed as 8.50. In the case of `COc1cc(OC)cc(N(Cc2ccccc2Cl)c2ccc3ncc(-c4cnn(C)c4)nc3c2)c1` [compound 68208812], the pIC50 is listed as 7.21. In the case of `COc1cc(OC)cc(N(CCCN)c2ccc3ncc(-c4cn[nH]c4)nc3c2)c1` [compound 68208813], the pIC50 is listed as 8.93. In the case of `CCN(CC)CCN(c1cc(OC)cc(OC)c1)c1ccc2ncc(-c3cnn(C)c3)nc2c1` [compound 68208850], the pIC50 is given as 8.52. In the case of `COc1cc(OC)cc(N(c2ccc3ncc(-c4cnn(C)c4)nc3c2)C(C)CNC(C)C)c1` (stereo not drawn) [compound 68208877], the pIC50 is given as 8.31. For `COc1cc(OC)cc(N(CCN2CCC(CCO)CC2)c2ccc3ncc(-c4cnn(C)c4)nc3c2)c1` [compound 68208907], the pIC50 is listed as 8.54.

Same assay, conditions: lowest reported IC50 to any gene target; read-out: Min IC50_μM; cited from earlier work
In the case of `CN1CCN(CCCNc2ncc3cc(-c4c(Cl)cccc4Cl)c(NC(=O)NC4CCCCC4)nc3n2)CC1` [compound 5328158], the pIC50 is listed as 7.51. In the case of `COc1cc(OC)cc(-c2cc3cnc(NCCCCCN4CCOCC4)cc3nc2NC(=O)NC(C)(C)C)c1` [compound 5330134], the pIC50 is listed as 9.30. For `COC(=O)C1=C(c2ccccc2)c2ccccc2C1=O` [compound 10015651], the pIC50 is given as 5.29. For `CONC(=O)c1cc(Nc2ncnn3cc(-c4nnc(C(C)C)o4)c(C(C)C)c23)c(F)cc1F` [compound 11442803], the pIC50 is listed as 9.00. For `COc1cc(OC)cc(-c2cc3cnc(N)nc3n(C)c2=O)c1` [compound 44294299], the pIC50 is given as 6.90. In the case of `COc1cc(OC)cc(N(CC#Cc2cc(C)ccn2)c2ccc3ncc(-c4cnn(C)c4)nc3c2)c1` [compound 67466880], the pIC50 is listed as 8.03.

Same assay, conditions: next lowest IC50 value to any gene target; Table 3; read-out: Min IC50_μM; cited from earlier work
In the case of `CNC(=O)c1ccccc1Sc1ccc2c(/C=C/c3ccccn3)n[nH]c2c1` [compound 6450551], the pIC50 is given as 10.00. For `CCCNC(=O)Nc1ccc(Oc2ncnc3cc(OC)c(OC)cc23)cc1Cl` [compound 9549295], the pIC50 is listed as 9.00. For `Oc1ccc(-c2cnn3cc(-c4ccc(OCCN5CCOCC5)cc4)cnc23)cc1O` [compound 52944268], the pIC50 is listed as 9.00. In the case of `COc1cc2c(Nc3ccc(Cl)c(Cl)c3F)ncnc2cc1OC[C@@H]1CN2CCCC[C@H]2C(=O)N1` [compound 57802612], the pIC50 is listed as 7.30. In the case of `COc1cc2c(Nc3ccc(Cl)c(Cl)c3F)ncnc2cc1OC[C@@H]1CN2CCCC[C@@H]2C(=O)N1` [compound 57802634], the pIC50 is listed as 7.30.

Same assay, conditions: next lowest IC50 value to any gene target; read-out: Min IC50_μM; cited from earlier work
In the case of `Clc1ccc(Nc2nnc(Cc3ccncc3)c3ccccc23)cc1` [compound 151193], the pIC50 is given as 7.11. In the case of `Clc1ccc(Nc2nnc(Cc3ccncc3)c3ccccc23)cc1` [compound 151194], the pIC50 is listed as 7.27. For `CNC(=O)c1cc(Oc2ccc(NC(=O)Nc3ccc(Cl)c(C(F)(F)F)c3)cc2)ccn1` [compound 216239], the pIC50 is given as 9.70. For `COc1cc2c(Nc3ccc(Br)cc3F)ncnc2cc1OCC1CCN(C)CC1` [compound 3081361], the pIC50 is listed as 7.96. In the case of `COc1cc2ncnc(Nc3ccc(Cl)cc3F)c2cc1OC` [compound 5329006], the pIC50 is listed as 6.00. In the case of `O=C(Nc1cccc(C(F)(F)F)c1)c1ccccc1NCc1ccncc1` [compound 6398883], the pIC50 is given as 7.74. For `Cc1cccc(NC(=O)Nc2ccc(-c3csc4ncnc(N)c34)cc2)c1` [compound 6539985], the pIC50 is listed as 8.70. For `O=C(Nc1ccc(Cl)cc1)c1ccccc1NCc1ccncc1` [compound 9797919], the pIC50 is listed as 6.74. For `COc1cc2nccc(Oc3ccc(NC(=O)NC4CC4)c(Cl)c3)c2cc1C(N)=O` [compound 9823820], the pIC50 is listed as 8.28. In the case of `Cc1ccc(Nc2nccc(N(C)c3ccc4c(C)n(C)nc4c3)n2)cc1S(N)(=O)=O` [compound 10113978], the pIC50 is listed as 8.00. In the case of `COc1cc2nccc(Oc3ccc4c(C(N)=O)cccc4c3)c2cc1C(N)=O` [compound 11211389], the pIC50 is given as 6.41. For `O=C(NCc1ccccc1)c1cc2c(-c3ccccc3)n[nH]c2s1` [compound 11359538], the pIC50 is given as 5.70. In the case of `COc1ccc(-c2ccc(NC(=O)Nc3cccc(C(F)(F)F)c3)cc2)c2c(N)noc12` [compound 11374110], the pIC50 is given as 7.80. In the case of `COc1ccc(-c2ccc(NC(=O)Nc3cc(C)ccc3F)cc2)c2c(N)noc12` [compound 11429654], the pIC50 is listed as 7.62. For `COc1ccc(-c2ccc(NC(=O)Nc3cccc(Cl)c3)cc2)c2c(N)noc12` [compound 11429729], the pIC50 is listed as 7.52. In the case of `COc1cc2nccc(Oc3ccc4c(C(=O)NC5CC5)cccc4c3)c2cc1OC` [compound 11441375], the pIC50 is given as 7.57. For `CCNC(=O)c1cccc2cc(Oc3ccnc4cc(OC)c(OC)cc34)ccc12` [compound 11486459], the pIC50 is listed as 7.34. For `Nc1[nH]nc2nccc(-c3ccc(NC(=O)Nc4cccc(C(F)(F)F)c4)cc3)c12` [compound 11495270], the pIC50 is listed as 8.70. In the case of `Cc1cccc(NC(=O)Nc2ccc(-c3cncc4c3c(N)nn4C)cc2)c1` [compound 11588815], the pIC50 is listed as 8.70. For `CNC(=O)c1cccc2cc(Oc3ccnc4cc(OC)c(OC)cc34)ccc12` [compound 11749561], the pIC50 is given as 6.96. In the case of `CCNC(=O)Nc1ccc(Oc2ncnc(N)c2/C=N/OC)cc1Cl` [compound 16742063], the pIC50 is listed as 6.74. In the case of `COc1cc2nccc(Oc3ccc4c(C(=O)Nc5ccc(Cl)cc5)cccc4c3)c2cc1OC` [compound 24757938], the pIC50 is given as 9.30. For `COc1cc2ncnc(Oc3ccc4c(C(N)=O)cccc4c3)c2cc1OC` [compound 24823094], the pIC50 is listed as 6.17. In the case of `COc1ccc2c(Oc3ccc4c(C(N)=O)cccc4c3)ccnc2c1` [compound 24823095], the pIC50 is listed as 6.89. For `C[C@@H](Nc1ncnc2[nH]c(-c3ccc(CNCCCCCCCC(=O)NO)cc3)cc12)c1ccccc1` [compound 24900644], the pIC50 is given as 7.00. In the case of `COc1cc2nccc(Oc3ccc(NC(=O)C4(C(=O)Nc5ccc(F)cc5)CC4)cc3)c2cc1OC` [compound 25102847], the pIC50 is listed as 8.89. In the case of `Cc1n[nH]c2sc(C(=O)NCc3ccccc3)cc12` [compound 44405941], the pIC50 is given as 4.80. For `Cc1n[nH]c2sc(C(N)=O)c(NC(=O)c3ccccc3Cl)c12` [compound 44405999], the pIC50 is listed as 5.05. For `O=C(NC1CCCCC1)c1cc2c(-c3ccccc3)n[nH]c2s1` [compound 44406074], the pIC50 is listed as 4.96. For `Nc1ncnc2snc(-c3ccc(NC(=O)Nc4cc(C(F)(F)F)ccc4F)cc3)c12` [compound 44414779], the pIC50 is listed as 7.66. In the case of `COc1ccc(N(C)c2ncnc3occ(C)c23)cc1` [compound 44555430], the pIC50 is given as 7.91. In the case of `c1ccc(-c2cnc3cncc(Nc4ccc(N5CCCCC5)cc4)c3n2)cc1` [compound 57332840], the pIC50 is given as 5.69. For `COc1ccc(-c2cnc3c(-c4cn[nH]c4)cnn3c2)cc1` [compound 57339386], the pIC50 is listed as 7.80.
